The target of this experiment is T1, hSCN3A sodium channels (Homo sapiens, UniProt Q9NY46).
T1 construct: expressed in transfected cells
The experiment in a line: hSCN3A electrophysiology, whole-cell patch-clamp or PatchXpress 7000, estimated IC-50 (Table B). The class given is cell-based. As to conditions: estimated IC-50; hSCN3A cells, whole-cell patch-clamp or PatchXpress 7000; read-out: SCN3A EIC-50. On the procedure: Human Embryonic Kidney (HEK) cells were transfected with an hSCN3A construct using lipofectamine reagent (Invitrogen), using standard techniques. […] Clones were screened for expression using the whole-cell voltage-clamp technique.
HEK cells stably transfected with hSCN3A were maintained in DMEM medium supplemented with 10% heat-inactivated fetal bovine serum and 400 μg/ml G418 sulfate in an incubator at 37° C. with a humidified atmosphere of 10% CO2. […] For electrophysiological studies, cells were removed from the culture flask by brief trypsinization and replated at low density onto glass cover slips. Cells were typically used for electrophysiological experiments within 24 to 72 h after plating.
All recordings were made at room temperature (22-24° C.) using AXOPATCH 200B amplifiers and PCLAMP software (Axon Instruments, Burlingame, Calif.) or PatchXpress 7000 hardware and associated software (Axon Instruments, Burlingame, Calif.).
Current records were acquired at 20 to 50 KHz and filtered at 5 to 10 KHz.
HEK cells stably transfected with hSCN3A were viewed under Hoffman contrast optics and placed in front of an array of flow pipes emitting either control or compound-containing extracellular solutions. All compounds were dissolved in dimethyl sulfoxide to make 10 mM stock solutions, which were then diluted into extracellular solution to attain the final concentrations desired.
The voltage-dependence of inactivation was determined by applying a series of depolarizing prepulses (8 sec long in 10 mV increments) from a negative holding potential. The voltage was then immediately stepped to 0 mV to assess the magnitude of the sodium current. Currents elicited at 0 mV were plotted as a function of prepulse potential to allow estimation of the voltage midpoint of inactivation (V1/2). Cells were then voltage clamped at the empirically determined V1/2.
Compounds were tested for their ability to inhibit hSCN3A sodium channels by activating the channel with a 20 msec voltage step to 0 mV following an 8 second conditioning prepulse to the empirically determined V1/2 (Table B). Compound effect (% inhibition) was determined by difference in current amplitude before and after application of test compounds. […] Inhibition values <20% and >80% were excluded from the calculation.
In some cases electrophysiological assays were conducted with PatchXpress 7000 hardware and associated software (Molecular Devices Corp) (Table B). All assay buffers and solutions were identical to those used in conventional whole-cell voltage clamp experiments described above. hSCN3A cells were grown as above to 50%-80% confluency and harvested by trypsinization. Trypsinized cells were washed and resuspended in extracellular buffer at a concentration of 1×10^6 cells/ml. The onboard liquid handling facility of the PatchXpress was used for dispensing cells and application of test compounds. Determination of the voltage midpoint of inactivation was as described for conventional whole-cell recordings. Cells were then voltage-clamped to the empirically determined V1/2 and current was activated by a 20 msec voltage step to 0 mV.

T1 sequence (Q9NY46 whole entry): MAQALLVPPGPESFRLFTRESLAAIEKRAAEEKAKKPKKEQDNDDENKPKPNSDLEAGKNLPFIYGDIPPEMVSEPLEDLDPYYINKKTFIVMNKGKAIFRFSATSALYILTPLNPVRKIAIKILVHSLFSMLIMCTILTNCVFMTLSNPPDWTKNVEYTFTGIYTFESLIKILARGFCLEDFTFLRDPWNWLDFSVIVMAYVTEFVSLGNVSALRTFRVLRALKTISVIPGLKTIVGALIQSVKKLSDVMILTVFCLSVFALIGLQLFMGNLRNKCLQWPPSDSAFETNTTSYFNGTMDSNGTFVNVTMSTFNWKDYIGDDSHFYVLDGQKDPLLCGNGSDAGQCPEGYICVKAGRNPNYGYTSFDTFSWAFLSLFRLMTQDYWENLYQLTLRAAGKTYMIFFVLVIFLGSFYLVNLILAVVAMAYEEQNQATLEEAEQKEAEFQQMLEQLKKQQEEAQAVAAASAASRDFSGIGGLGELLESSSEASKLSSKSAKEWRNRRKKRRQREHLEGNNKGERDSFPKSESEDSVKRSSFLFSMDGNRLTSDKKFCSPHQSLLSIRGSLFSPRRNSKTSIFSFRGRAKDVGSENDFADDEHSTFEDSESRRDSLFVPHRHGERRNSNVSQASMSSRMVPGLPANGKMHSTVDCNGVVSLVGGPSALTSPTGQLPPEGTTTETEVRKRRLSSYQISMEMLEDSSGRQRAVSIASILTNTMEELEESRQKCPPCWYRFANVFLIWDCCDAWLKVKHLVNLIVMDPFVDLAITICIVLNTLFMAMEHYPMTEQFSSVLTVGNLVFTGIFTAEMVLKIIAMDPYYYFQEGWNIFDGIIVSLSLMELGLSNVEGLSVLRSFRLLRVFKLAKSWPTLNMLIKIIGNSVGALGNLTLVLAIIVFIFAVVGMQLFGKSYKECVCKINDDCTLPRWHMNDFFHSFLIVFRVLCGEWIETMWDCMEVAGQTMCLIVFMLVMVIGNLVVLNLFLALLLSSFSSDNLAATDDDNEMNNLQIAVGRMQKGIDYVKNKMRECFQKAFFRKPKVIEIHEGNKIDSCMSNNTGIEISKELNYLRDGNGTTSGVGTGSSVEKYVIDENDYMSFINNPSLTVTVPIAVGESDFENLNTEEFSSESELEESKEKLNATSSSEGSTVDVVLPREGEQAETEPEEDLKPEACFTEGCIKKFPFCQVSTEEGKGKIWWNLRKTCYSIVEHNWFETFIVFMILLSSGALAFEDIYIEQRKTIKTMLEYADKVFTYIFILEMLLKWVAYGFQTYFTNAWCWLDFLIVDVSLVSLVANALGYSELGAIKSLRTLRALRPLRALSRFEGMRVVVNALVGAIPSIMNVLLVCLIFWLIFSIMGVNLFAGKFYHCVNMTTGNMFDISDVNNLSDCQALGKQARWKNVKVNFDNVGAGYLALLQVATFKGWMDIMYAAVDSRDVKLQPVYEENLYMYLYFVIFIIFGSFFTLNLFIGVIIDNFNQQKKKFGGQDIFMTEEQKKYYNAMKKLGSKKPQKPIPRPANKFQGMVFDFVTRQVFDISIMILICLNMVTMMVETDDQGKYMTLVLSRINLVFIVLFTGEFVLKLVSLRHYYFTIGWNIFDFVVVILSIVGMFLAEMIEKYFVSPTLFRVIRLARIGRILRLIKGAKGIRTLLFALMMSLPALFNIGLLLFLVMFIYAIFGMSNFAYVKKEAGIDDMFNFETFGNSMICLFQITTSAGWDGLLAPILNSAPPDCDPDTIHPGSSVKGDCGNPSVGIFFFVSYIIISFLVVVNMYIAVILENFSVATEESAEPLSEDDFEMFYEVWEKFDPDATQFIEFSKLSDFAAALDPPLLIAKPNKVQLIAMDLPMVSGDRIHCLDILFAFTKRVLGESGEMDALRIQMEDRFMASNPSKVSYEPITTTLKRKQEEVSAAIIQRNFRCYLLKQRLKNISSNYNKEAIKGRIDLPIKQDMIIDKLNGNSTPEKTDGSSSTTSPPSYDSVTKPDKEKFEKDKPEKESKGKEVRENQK

Regarding `O=C(NCc1cccc(OC(F)(F)F)c1)c1ccc(S(=O)(=O)Nc2ncc(Cl)s2)cc1` [Example 29, 4-{[(5-Chloro-1,3-thiazol-2-yl)amino]sulfonyl}-N-[3-(trifluoromethoxy)benzyl]benzamide], the IC50 is 170 nM.

On to `O=C(NCc1ccc(C(F)(F)F)c(Cl)c1)c1ccc(S(=O)(=O)Nc2ncc(Cl)s2)cc1` [Example 30, 4-{[(5-Chloro-1,3-thiazol-2-yl)amino]sulfonyl}-N-[3-chloro-4-(trifluoromethyl)benzyl]benzamide], for which the IC50 is 30 nM.

Take `O=C(NCc1ccc(C(F)(F)F)c(F)c1)c1ccc(S(=O)(=O)Nc2ncc(Cl)s2)cc1` [Example 31, 4-{[(5-Chloro-1,3-thiazol-2-yl)amino]sulfonyl}-N-[3-fluoro-4-(trifluoromethyl)benzyl]benzamide]: the IC50 was 70 nM.

Regarding `O=C(NCc1ccc(F)c(OC(F)(F)F)c1)c1ccc(S(=O)(=O)Nc2ncc(Cl)s2)cc1` [Example 32, 4-{[(5-Chloro-1,3-thiazol-2-yl)amino]sulfonyl}-N-[4-fluoro-3-(trifluoromethoxy)benzyl]benzamide], the IC50 is 70 nM.

As to `O=C(NCc1ccc(F)c(F)c1)c1ccc(S(=O)(=O)Nc2ncc(Cl)s2)cc1` [Example 33, 4-{[(5-Chloro-1,3-thiazol-2-yl)amino]sulfonyl}-N-(3,4-difluorobenzyl)benzamide], the IC50 is 150 nM.

Take `O=C(NCc1ccc(F)c(C(F)(F)F)c1)c1ccc(S(=O)(=O)Nc2ncc(Cl)s2)cc1` [Example 34, 4-{[(5-Chloro-1,3-thiazol-2-yl)amino]sulfonyl}-N-[4-fluoro-3-(trifluoromethyl)benzyl]benzamide]: the IC50 was 90 nM.

With `O=C(NCc1ccc(Cl)c(Cl)c1)c1ccc(S(=O)(=O)Nc2ncc(Cl)s2)cc1` [Example 35, 4-{[(5-Chloro-1,3-thiazol-2-yl)amino]sulfonyl}-N-(3,4-dichlorobenzyl)benzamide], the IC50 was 40 nM.

For `O=C(NCc1ccc(F)c(Cl)c1)c1ccc(S(=O)(=O)Nc2ncc(Cl)s2)cc1` [Example 36, N-(3-Chloro-4-fluorobenzyl)-4-{[(5-chloro-1,3-thiazol-2-yl)amino]sulfonyl}benzamide], the IC50 is 70 nM.

With `O=C(NCc1ccc(Cl)c(F)c1)c1ccc(S(=O)(=O)Nc2ncc(Cl)s2)cc1` [Example 37, N-(4-Chloro-3-fluorobenzyl)-4-{[(5-chloro-1,3-thiazol-2-yl)amino]sulfonyl}benzamide], the IC50 was 70 nM.

Turning to `O=C(NCc1ccc(OC(F)(F)F)c(F)c1)c1ccc(S(=O)(=O)Nc2ncc(Cl)s2)cc1` [Example 38], the IC50 is 60 nM.

Take `O=C(NCc1ccc(C(F)(F)F)cc1F)c1ccc(S(=O)(=O)Nc2ncc(Cl)s2)cc1` [Example 39, 4-{[(5-Chloro-1,3-thiazol-2-yl)amino]sulfonyl}-N-[2-fluoro-4-(trifluoromethyl)benzyl]benzamide]: the IC50 was 120 nM.

`O=C(NCc1cccc(C(F)(F)F)c1F)c1ccc(S(=O)(=O)Nc2ncc(Cl)s2)cc1` [Example 40, 4-{[(5-Chloro-1,3-thiazol-2-yl)amino]sulfonyl}-N-[2-fluoro-3-(trifluoromethyl)benzyl]benzamide]: the IC50 is 210 nM.

In the case of `CN(Cc1ccc(C(F)(F)F)cc1)C(=O)c1ccc(S(=O)(=O)Nc2ncc(Cl)s2)cc1` [Example 41, 4-{[(5-Chloro-1,3-thiazol-2-yl)amino]sulfonyl}-N-methyl-N-[4-(trifluoromethyl)benzyl]benzamide], the IC50 is 2350 nM.

On to `O=C(N[C@H]1C[C@@H]1c1ccccc1)c1ccc(S(=O)(=O)Nc2ncc(Cl)s2)cc1` [Example 42, 4-{[(5-Chloro-1,3-thiazol-2-yl)amino]sulfonyl}-N-[(1S,2R)-2-phenylcyclopropyl]benzamide], for which the IC50 was 510 nM.

In the case of `CN(Cc1ccc(F)cc1)C(=O)c1ccc(S(=O)(=O)Nc2ncc(Cl)s2)cc1` [Example 43, 4-{[(5-Chloro-1,3-thiazol-2-yl)amino]sulfonyl}-N-(4-fluorobenzyl)-N-methylbenzamide], the IC50 was 4830 nM.

Values taken from patent publication US8741934B2, “Inhibitors of ion channels” (Pfizer Limited, priority 2007, dated 2014).
